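Following 48 hours of exposure in 96-well plates, responses at five concentrations were used to interpolate endpoints linearly. TGI: total growth inhibition.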

Test systems include A498 renal; A549 NSCLC; CAKI-1 renal; EKVX NSCLC; HL-60(TB) leukemia; HOP-92 NSCLC; MCF7 breast; MDA-MB-231 breast; MDA-MB-435; MDA-N; NCI-H23 lung; NCI/ADR-RES ovarian; OVCAR-8 ovarian; SF-295 CNS; SF-539 CNS; SK-OV-3 ovarian; SN12C renal; SW-620 colon; TK-10 renal; HOP-62 NSCLC.
Test in all cases: inhibition of tumour cell growth, NCI panel, 48 h

As for `N#Cc1c(-c2ccc(Cl)cc2)c(C#N)c(=O)n(NS(=O)(=O)c2ccccc2)c1S`, the TGI with A498 renal was more than 100 µM; in the assay on A549 NSCLC, more than 100 µM; in the assay with CAKI-1 renal it was 66.6 µM; in the assay with EKVX NSCLC, more than 100 µM; in the assay with HL-60(TB) leukemia it was 60 µM; in the assay with HOP-92 NSCLC, more than 100 µM. Moreover, the TGI in the assay on MCF7 breast was more than 100 µM; in the assay with MDA-MB-231 breast, 75.2 µM; with MDA-MB-435, 65 µM; with MDA-N, 67.3 µM; in the assay with NCI-H23 lung, more than 100 µM; in the assay on NCI/ADR-RES ovarian, 74.2 µM. Further, the TGI in the assay with OVCAR-8 ovarian is 65 µM; with SF-295 CNS it was more than 100 µM; in the assay on SF-539 CNS, 42.1 µM; with SK-OV-3 ovarian, more than 100 µM; in the assay on SN12C renal, 78 µM; in the assay on SW-620 colon it was 69.9 µM. For the same compound, in the assay on TK-10 renal, the TGI came out at 70.6 µM.
On to `COc1cc(/C=C/C(=O)OC2C(O)C3CC(OC(=O)c4cc(OC)c(OC)c(OC)c4)CC2N3C)cc(OC)c1OC` (stereo not drawn), for which the TGI in the assay with A498 renal is 17.7 µM; in the assay with A549 NSCLC, more than 50 µM; in the assay on CAKI-1 renal, more than 50 µM; in the assay on EKVX NSCLC, more than 50 µM; with HOP-62 NSCLC it was more than 50 µM; with HOP-92 NSCLC it was more than 50 µM. Also, the TGI with MCF7 breast, in the assay on MDA-MB-231 breast, with MDA-MB-435, with MDA-N, in the assay with NCI-H23 lung and in the assay on NCI/ADR-RES ovarian was more than 50 µM throughout. Also, the TGI in the assay on OVCAR-8 ovarian, in the assay on SF-295 CNS, in the assay with SF-539 CNS, in the assay with SK-OV-3 ovarian, in the assay on SN12C renal and in the assay with SW-620 colon was more than 50 µM throughout. In the assay on TK-10 renal, the TGI is more than 50 µM.
As for `O=c1[nH]c(=O)n(COCCO)c2ccc(Br)cc12`, the TGI with A498 renal, in the assay on A549 NSCLC, with CAKI-1 renal, with EKVX NSCLC, in the assay on HL-60(TB) leukemia and in the assay with HOP-92 NSCLC was more than 100 µM each time. In addition, the TGI with MCF7 breast, in the assay on MDA-MB-231 breast, in the assay on MDA-MB-435, with MDA-N, with NCI/ADR-RES ovarian and in the assay on OVCAR-8 ovarian was more than 100 µM each time. Also, the TGI in the assay on SF-295 CNS, with SF-539 CNS, with SK-OV-3 ovarian, in the assay with SN12C renal, with SW-620 colon and with TK-10 renal was more than 100 µM in each case.
`C=C1CCC2CC1[C@@H](C(=O)c1c[nH]c3ccccc13)NC2(C)C` (stereo partly drawn): the TGI with A498 renal, in the assay on A549 NSCLC, in the assay with CAKI-1 renal, with EKVX NSCLC, in the assay with HL-60(TB) leukemia and in the assay with HOP-62 NSCLC was more than 37.5 µM throughout. Also, the TGI in the assay on HOP-92 NSCLC is 31 µM; in the assay with MCF7 breast, more than 37.5 µM; with MDA-MB-231 breast, more than 37.5 µM; in the assay on MDA-MB-435, more than 37.5 µM; in the assay on MDA-N, more than 37.5 µM; in the assay on NCI-H23 lung it was more than 37.5 µM. Moreover, the TGI in the assay with NCI/ADR-RES ovarian, with OVCAR-8 ovarian, in the assay with SF-295 CNS, with SF-539 CNS, in the assay with SN12C renal and in the assay with SW-620 colon was more than 37.5 µM in each case. The same compound returned a TGI in the assay with TK-10 renal of more than 37.5 µM.
For `COc1ccc(Cc2c(N)[nH]c(=O)n(C)c2=O)cc1`, the TGI in the assay with A498 renal, with A549 NSCLC, in the assay on CAKI-1 renal, in the assay on EKVX NSCLC, in the assay with HOP-62 NSCLC and with HOP-92 NSCLC was more than 100 µM each time. Further, the TGI with MCF7 breast is 22.2 µM; in the assay with MDA-MB-231 breast it was more than 100 µM; in the assay with MDA-MB-435, more than 100 µM; with MDA-N, more than 100 µM; with NCI-H23 lung it was more than 100 µM; in the assay on NCI/ADR-RES ovarian, more than 100 µM. Moreover, the TGI in the assay with OVCAR-8 ovarian, in the assay with SF-295 CNS, in the assay with SF-539 CNS, in the assay on SK-OV-3 ovarian, in the assay with SN12C renal and in the assay with SW-620 colon was more than 100 µM throughout. For the same compound, in the assay with TK-10 renal, the TGI is more than 100 µM.
Turning to `Cc1cccc2c(=O)c3c(O)cc(O)cc3[nH]c12`, the TGI in the assay on A498 renal, in the assay on A549 NSCLC, in the assay with CAKI-1 renal, in the assay with EKVX NSCLC, with HOP-62 NSCLC and with HOP-92 NSCLC was more than 10 µM throughout. Moreover, the TGI in the assay with MCF7 breast, in the assay on MDA-MB-231 breast, with MDA-MB-435, in the assay on MDA-N, in the assay with NCI-H23 lung and with NCI/ADR-RES ovarian was more than 10 µM each time. Further, the TGI with OVCAR-8 ovarian, in the assay on SF-295 CNS, in the assay with SF-539 CNS, in the assay on SK-OV-3 ovarian, in the assay with SN12C renal and in the assay on SW-620 colon was more than 10 µM in each case. This compound also yielded a TGI with TK-10 renal of more than 10 µM.
Turning to `C=CC(C)(C)C(=C)C(=O)N(C)c1ccccc1I`, the TGI with A498 renal, in the assay on A549 NSCLC, in the assay on CAKI-1 renal, in the assay with EKVX NSCLC, in the assay on HOP-62 NSCLC and with HOP-92 NSCLC was more than 100 µM throughout. Moreover, the TGI in the assay with MCF7 breast, in the assay on MDA-MB-231 breast, in the assay with MDA-MB-435, with MDA-N, in the assay with NCI-H23 lung and in the assay with NCI/ADR-RES ovarian was more than 100 µM in each case. For the same compound, the TGI with OVCAR-8 ovarian, in the assay on SF-295 CNS, in the assay with SK-OV-3 ovarian, in the assay on SN12C renal, in the assay with SW-620 colon and in the assay on TK-10 renal was more than 100 µM each time.
`COC(=O)C1CC=C(SC(=O)c2ccccc2)N1C(=O)c1ccccc1` (stereo not drawn): the TGI with A498 renal, with A549 NSCLC, in the assay on CAKI-1 renal, with EKVX NSCLC, in the assay with HOP-62 NSCLC and in the assay with HOP-92 NSCLC was more than 100 µM throughout. For the same compound, the TGI with MCF7 breast, in the assay with MDA-MB-231 breast, in the assay on MDA-MB-435, in the assay with MDA-N, in the assay on NCI-H23 lung and in the assay with NCI/ADR-RES ovarian was more than 100 µM each time. Moreover, the TGI in the assay on OVCAR-8 ovarian, with SF-295 CNS, with SK-OV-3 ovarian, with SW-620 colon and in the assay on TK-10 renal was more than 100 µM each time.
